Experimental findings from patent US20220401367A1, “REHYDRATABLE, MORPHOLOGICALLY DIVERSE NANOCARRIER POWDERS” (Northwestern University, priority 2021, published 2022) are described below.

Data set [1] deals with RAW 264.7 macrophages. Kind of data set: Flow cytometric cytotoxicity (Zombie Aqua viability dye) in macrophages. Format: cell-based. The following applies: mouse, 70 %. As for the experimental part:
(§1) Macrophage cell culture. RAW 264.7 macrophages were purchased from ATCC and were cultured in T75 polystyrene tissue culture flasks (BD Biosciences) in Dulbecco's Modified Eagle Medium supplemented with 10% fetal bovine serum (FBS) (Gibco) and 1% penicillin/streptomycin antibiotics (Life Technologies). Cells were passaged by mechanical scraping after reaching 70-80% confluency.
(§2) Flow cytometric analysis of nanocarrier uptake and cytotoxicity. For each specified cell line, a total of 100,000 cells were seeded per well in 24-well polystyrene plates (Falcon). Cells were allowed to adhere overnight at 37° C., 4.0% CO2. For uptake studies involving endocytosis inhibitor pre-treatments, cells were incubated with either PBS (i.e., no inhibitor), cytochalasin D (CytD, 50 μM) phagocytosis inhibitor, or chlorpromazine (CPZ, 50 μM) clathrin-mediated endocytosis inhibitor prior to administering nanocarriers. Inhibitor concentrations were chosen based on published reports^36,53. Cells were treated with nanocarriers at the specified polymer concentration for 2 h. […] A total of 10,000 single cell events were recorded per sample and the resulting data were analyzed using the Cytobank analysis suite^54. The median fluorescence intensity (MFI) was normalized by subtracting the average MFI from untreated cells and was used to quantify the cellular uptake of nanocarriers.
For orientation: In flow cytometry, cells or beads pass a laser one at a time.

Data set [2] deals with RAW 264.7 macrophages. Kind of data set: Flow cytometric analysis of nanocarrier uptake by macrophages (MFI), with or without endocytosis inhibitors. Particulars: 50 μM CytD or 50 μM CPZ pre-treatment; nanocarriers at 1.0 mg/mL polymer. Format: cell-based. On the procedure:
as §1, §2

As to `CCO` [70% ethanol, ethanol], in the data set on RAW 264.7 macrophages [1], the macrophage viability result is “below 30%”. In the case of `CN(C)CCCN1c2ccccc2Sc2ccc(Cl)cc21` [chlorpromazine], the “nanocarrier uptake after pre-treatment with endocytosis inhibitors (in words)” value in the data set with RAW 264.7 macrophages [2] was “decreased uptake of all structures”. Take `C=C1[C@@H](C)[C@H]2[C@H](Cc3ccccc3)NC(=O)[C@]23[C@H](OC(C)=O)/C=C/[C@@](C)(O)C(=O)[C@@H](C)C/C=C/[C@H]3[C@@H]1O` [cytochalasin D]: in the data set on RAW 264.7 macrophages [2], the “nanocarrier uptake after pre-treatment with endocytosis inhibitors (in words)” value is given as “decreased uptake of all structures”.
